Test results: ChEMBL document CHEMBL3885861, “Open TG-GATES”

Organism: Rattus norvegicus
Experiment: Open TG-GATES - Regimen: Single
Assay type: toxicity, organism-based, Sprague-Dawley
Design: regimen Single, gender Male, age 6 weeks
Details: in vivo, po, route gavage; for Eos / Fbg / Hb / Ht / Lym / MCH / MCHC / MCV / Mono / Neu / PT / Plat / RBC / Ret / APTT / Bas / WBC: tissue Blood; for KIDNEY_L / KIDNEY_R / KIDNEY_TOTAL: tissue Kidney; for LIVER: tissue Liver; for ALP / ALT / AST / BUN / CRE / Ca / DBIL / GLC / IP / K / LDH / Na / PL / RALB / TBIL / TC / TG / TP / gamma-GTP: tissue Plasma
[1] = 50 mg/kg, 3 h, dose level Middle
[2] = 50 mg/kg, 6 h, dose level Middle
[3] = 50 mg/kg, 9 h, dose level Middle
[4] = 50 mg/kg, 24 h, dose level Middle
[5] = 150 mg/kg, 3 h, dose level High
[6] = 150 mg/kg, 6 h, dose level High
[7] = 150 mg/kg, 9 h, dose level High
[8] = 150 mg/kg, 24 h, dose level High

Oc1ncnc2[nH]ncc12 [ALLOPURINOL]
Eos [1]: 0.8% | Fbg [1]: 209.6 mg/dL | Hb [1]: 14 g/dL | Ht [1]: 41.6% | Lym [1]: 80% | MCH [1]: 21.9 pg | MCHC [1]: 33.7% | MCV [1]: 64.9 fL | Mono [1]: 8.2% | Neu [1]: 11.2% | PT [1]: 12.2 s | Plat [1]: 109.1 x10_4/uL | RBC [1]: 640.4 x10_4/ul | Ret [1]: 7.8% | KIDNEY_L [1]: 1 g | KIDNEY_R [1]: 1.1 g | KIDNEY_TOTAL [1]: 2.1 g | LIVER [1]: 9.9 g | ALP [1]: 877.8 IU/L | ALT [1]: 30.4 IU/L | AST [1]: 62.8 IU/L | BUN [1]: 15.6 mg/dL | CRE [1]: 0.6 mg/dL | Ca [1]: 11.2 mg/dL | DBIL [1]: 0.1 mg/dL | GLC [1]: 195.4 mg/dL | IP [1]: 9.9 mg/dL | K [1]: 4.6 meq/L | LDH [1]: 90.6 IU/L | Na [1]: 140 meq/L | PL [1]: 136.2 mg/dL | RALB [1]: 3.8 g/dL | TBIL [1]: 0.4 mg/dL | TC [1]: 80.4 mg/dL | TG [1]: 36.6 mg/dL | TP [1]: 5.6 g/dL | gamma-GTP [1]: 1 IU/L | TERMINAL_BW [2]: 208.2 g | APTT [2]: 16.7 s | Bas [2]: 0% | Eos [2]: 0.8% | Fbg [2]: 218.8 mg/dL | Hb [2]: 13.6 g/dL | Ht [2]: 40.6% | Lym [2]: 69% | MCH [2]: 21.4 pg | MCHC [2]: 33.5% | MCV [2]: 64 fL | Mono [2]: 9.2% | Neu [2]: 21.2% | PT [2]: 12.3 s | Plat [2]: 98.1 x10_4/uL | RBC [2]: 634 x10_4/ul | Ret [2]: 8.1% | WBC [2]: 122.8 x10_2/uL | KIDNEY_L [2]: 1.1 g | KIDNEY_R [2]: 1.2 g | KIDNEY_TOTAL [2]: 2.2 g | LIVER [2]: 9.5 g | ALP [2]: 927.4 IU/L | ALT [2]: 29.6 IU/L | AST [2]: 63.6 IU/L | BUN [2]: 15 mg/dL | CRE [2]: 0.5 mg/dL | Ca [2]: 11.6 mg/dL | DBIL [2]: 0.014 mg/dL | GLC [2]: 185 mg/dL | K [2]: 4.8 meq/L | LDH [2]: 81.2 IU/L | Na [2]: 140 meq/L | PL [2]: 130.6 mg/dL | RALB [2]: 3.7 g/dL | TBIL [2]: 0.4 mg/dL | TC [2]: 72.4 mg/dL | TG [2]: 58.8 mg/dL | TP [2]: 5.5 g/dL | gamma-GTP [2]: 1 IU/L | TERMINAL_BW [3]: 207.1 g | APTT [3]: 16.8 s | Bas [3]: 0% | Eos [3]: 1.2% | Fbg [3]: 222.6 mg/dL | Hb [3]: 13.7 g/dL | Ht [3]: 40.9% | Lym [3]: 67.2% | MCH [3]: 22 pg | MCHC [3]: 33.5% | MCV [3]: 65.9 fL | Mono [3]: 4.6% | Neu [3]: 27.4% | PT [3]: 12.5 s | Plat [3]: 108.6 x10_4/uL | RBC [3]: 622 x10_4/ul | Ret [3]: 8.9% | WBC [3]: 86.1 x10_2/uL | KIDNEY_L [3]: 1 g | KIDNEY_R [3]: 1 g | KIDNEY_TOTAL [3]: 2 g | LIVER [3]: 8.8 g | ALP [3]: 846.2 IU/L | ALT [3]: 29.4 IU/L | AST [3]: 60.2 IU/L | BUN [3]: 12.2 mg/dL | CRE [3]: 0.4 mg/dL | DBIL [3]: 0.044 mg/dL | GLC [3]: 178.4 mg/dL | IP [3]: 10.9 mg/dL | K [3]: 4.6 meq/L | LDH [3]: 80.8 IU/L | Na [3]: 139.2 meq/L | PL [3]: 147 mg/dL | RALB [3]: 3.6 g/dL | TBIL [3]: 0.4 mg/dL | TC [3]: 82.8 mg/dL | TG [3]: 30.2 mg/dL | TP [3]: 5.5 g/dL | gamma-GTP [3]: 1.4 IU/L | TERMINAL_BW [4]: 219.7 g | APTT [4]: 16.3 s | Bas [4]: 0% | Eos [4]: 1.2% | Fbg [4]: 229.6 mg/dL | Hb [4]: 13.6 g/dL | Ht [4]: 40.6% | Lym [4]: 81.2% | MCH [4]: 21.2 pg | MCHC [4]: 33.4% | MCV [4]: 63.5 fL | Mono [4]: 4.8% | Neu [4]: 13.2% | PT [4]: 12 s | Plat [4]: 98.8 x10_4/uL | RBC [4]: 641 x10_4/ul | Ret [4]: 6.9% | WBC [4]: 111.4 x10_2/uL | KIDNEY_L [4]: 1 g | KIDNEY_R [4]: 1 g | KIDNEY_TOTAL [4]: 2 g | ALP [4]: 1004.2 IU/L | ALT [4]: 32 IU/L | AST [4]: 63 IU/L | BUN [4]: 18.6 mg/dL | CRE [4]: 0.5 mg/dL | Ca [4]: 11 mg/dL | DBIL [4]: 0.022 mg/dL | GLC [4]: 183.4 mg/dL | IP [4]: 7.9 mg/dL | K [4]: 4.9 meq/L | LDH [4]: 88.4 IU/L | Na [4]: 139.2 meq/L | PL [4]: 162.4 mg/dL | RALB [4]: 3.8 g/dL | TBIL [4]: 0.3 mg/dL | TC [4]: 81.4 mg/dL | TG [4]: 120 mg/dL | TP [4]: 5.8 g/dL | gamma-GTP [4]: 1.6 IU/L | TERMINAL_BW [5]: 210.3 g | APTT [5]: 16.8 s | Bas [5]: 0% | Eos [5]: 0.8% | Fbg [5]: 220.2 mg/dL | Hb [5]: 13.9 g/dL | Ht [5]: 41.3% | Lym [5]: 75% | MCH [5]: 21.7 pg | MCHC [5]: 33.6% | MCV [5]: 64.6 fL | Mono [5]: 10% | Neu [5]: 14% | PT [5]: 12.4 s | Plat [5]: 112 x10_4/uL | RBC [5]: 640.6 x10_4/ul | Ret [5]: 8.1% | WBC [5]: 82 x10_2/uL | KIDNEY_L [5]: 1.1 g | KIDNEY_R [5]: 1.1 g | KIDNEY_TOTAL [5]: 2.2 g | LIVER [5]: 9.9 g | ALP [5]: 830.8 IU/L | ALT [5]: 34.6 IU/L | AST [5]: 63.8 IU/L | BUN [5]: 13 mg/dL | CRE [5]: 0.5 mg/dL | Ca [5]: 11.1 mg/dL | DBIL [5]: 0.046 mg/dL | GLC [5]: 191.8 mg/dL | K [5]: 4.7 meq/L | LDH [5]: 160.4 IU/L | Na [5]: 140.2 meq/L | PL [5]: 129.8 mg/dL | RALB [5]: 3.8 g/dL | TBIL [5]: 0.4 mg/dL | TC [5]: 75.8 mg/dL | TG [5]: 36.6 mg/dL | TP [5]: 5.6 g/dL | gamma-GTP [5]: 1.6 IU/L | TERMINAL_BW [6]: 208.4 g | APTT [6]: 16.2 s | Bas [6]: 0% | Eos [6]: 0.6% | Fbg [6]: 227.4 mg/dL | Hb [6]: 14.1 g/dL | Ht [6]: 42.2% | Lym [6]: 64.8% | MCH [6]: 21.8 pg | MCHC [6]: 33.5% | MCV [6]: 65.1 fL | Mono [6]: 6.6% | Neu [6]: 28% | PT [6]: 12.3 s | RBC [6]: 648.6 x10_4/ul | Ret [6]: 7.8% | WBC [6]: 115.3 x10_2/uL | KIDNEY_L [6]: 1 g | KIDNEY_R [6]: 1 g | KIDNEY_TOTAL [6]: 2.1 g | LIVER [6]: 9.5 g | ALP [6]: 1127.2 IU/L | ALT [6]: 29 IU/L | AST [6]: 61.6 IU/L | BUN [6]: 16.2 mg/dL | CRE [6]: 0.5 mg/dL | Ca [6]: 11.6 mg/dL | DBIL [6]: 0.016 mg/dL | GLC [6]: 191.6 mg/dL | K [6]: 4.9 meq/L | LDH [6]: 149 IU/L | Na [6]: 140.8 meq/L | PL [6]: 134.6 mg/dL | RALB [6]: 3.9 g/dL | TBIL [6]: 0.3 mg/dL | TC [6]: 72 mg/dL | TG [6]: 47 mg/dL | TP [6]: 5.7 g/dL | gamma-GTP [6]: 0.8 IU/L | TERMINAL_BW [7]: 205 g | APTT [7]: 16.9 s | Bas [7]: 0% | Eos [7]: 0.8% | Fbg [7]: 230.2 mg/dL | Hb [7]: 14.1 g/dL | Ht [7]: 42.1% | Lym [7]: 65.4% | MCH [7]: 21.4 pg | MCHC [7]: 33.6% | MCV [7]: 63.6 fL | Mono [7]: 5.4% | Neu [7]: 28.6% | PT [7]: 12.3 s | Plat [7]: 110.4 x10_4/uL | RBC [7]: 662.2 x10_4/ul | Ret [7]: 8.1% | WBC [7]: 82.6 x10_2/uL | KIDNEY_L [7]: 1.1 g | KIDNEY_R [7]: 1.1 g | KIDNEY_TOTAL [7]: 2.2 g | LIVER [7]: 9 g | ALP [7]: 832.2 IU/L | ALT [7]: 26 IU/L | AST [7]: 62.2 IU/L | BUN [7]: 18.8 mg/dL | CRE [7]: 0.5 mg/dL | Ca [7]: 11.1 mg/dL | DBIL [7]: 0.028 mg/dL | GLC [7]: 199.2 mg/dL | IP [7]: 11.6 mg/dL | K [7]: 4.7 meq/L | LDH [7]: 162.2 IU/L | Na [7]: 140.4 meq/L | PL [7]: 151 mg/dL | RALB [7]: 3.9 g/dL | TBIL [7]: 0.4 mg/dL | TC [7]: 80 mg/dL | TG [7]: 53 mg/dL | TP [7]: 5.9 g/dL | gamma-GTP [7]: 1.8 IU/L | TERMINAL_BW [8]: 220.7 g | APTT [8]: 16.2 s | Bas [8]: 0% | Eos [8]: 1.2% | Fbg [8]: 319.8 mg/dL | Hb [8]: 13.8 g/dL | Ht [8]: 41% | Lym [8]: 70.6% | MCH [8]: 21.9 pg | MCHC [8]: 33.6% | MCV [8]: 65.1 fL | Mono [8]: 9.8% | Neu [8]: 18.2% | PT [8]: 12.1 s | Plat [8]: 118.1 x10_4/uL | RBC [8]: 629.4 x10_4/ul | Ret [8]: 7.5% | WBC [8]: 99.2 x10_2/uL | KIDNEY_L [8]: 1.2 g | KIDNEY_R [8]: 1.3 g | KIDNEY_TOTAL [8]: 2.5 g | ALP [8]: 923.6 IU/L | ALT [8]: 28.4 IU/L | AST [8]: 61.8 IU/L | BUN [8]: 24.8 mg/dL | CRE [8]: 0.6 mg/dL | Ca [8]: 11.2 mg/dL | DBIL [8]: 0.048 mg/dL | GLC [8]: 196 mg/dL | IP [8]: 9 mg/dL | K [8]: 4.7 meq/L | LDH [8]: 157 IU/L | Na [8]: 139.8 meq/L | PL [8]: 159.6 mg/dL | RALB [8]: 3.8 g/dL | TBIL [8]: 0.3 mg/dL | TC [8]: 90.6 mg/dL | TG [8]: 87.2 mg/dL | TP [8]: 6 g/dL | gamma-GTP [8]: 2 IU/L
